Literature values, collected in patent US8338628B2, “Method of synthesizing alkylated bile acid derivatives” (City of Hope, priority 2007, dated 2012).

How the values were obtained:
[1] = background statement
[2] = system: FXR; conditions: in vivo; recent studies
[3] = target: T1, farnesoid X receptor (FXR) (Homo sapiens, UniProt Q96RI1); conditions: background statement
T1 sequence (Q96RI1 1-486): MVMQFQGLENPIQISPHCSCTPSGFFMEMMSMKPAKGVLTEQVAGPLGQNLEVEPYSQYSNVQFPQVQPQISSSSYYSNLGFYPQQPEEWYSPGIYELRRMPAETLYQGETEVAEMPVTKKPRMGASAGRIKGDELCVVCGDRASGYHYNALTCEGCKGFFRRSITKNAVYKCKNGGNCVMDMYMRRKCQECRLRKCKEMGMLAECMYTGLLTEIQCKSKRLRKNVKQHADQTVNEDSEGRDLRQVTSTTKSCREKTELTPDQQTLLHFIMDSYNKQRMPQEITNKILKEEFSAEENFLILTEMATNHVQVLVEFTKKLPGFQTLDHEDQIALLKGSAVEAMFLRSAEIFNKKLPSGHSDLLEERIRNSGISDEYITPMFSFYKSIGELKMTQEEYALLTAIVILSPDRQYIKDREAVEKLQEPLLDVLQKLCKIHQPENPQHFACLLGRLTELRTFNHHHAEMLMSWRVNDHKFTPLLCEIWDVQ

Row | Compound | pharmacokinetic properties (in words) [1] | HDL-cholesterol [2] | plasma triglycerides [2] | FXR activation (in words) [3]
1 | CC[C@H]1[C@@H](O)[C@@H]2[C@H](CC[C@]3(C)[C@@H]([C@H](C)CCC(=O)O)CC[C@@H]23)[C@@]2(C)CC[C@@H](O)C[C@@H]12 [Compound 6-ECDCA, 3α,7α-Dihydroxy-6α-ethyl-5β-cholan-24-oic acid] | improved pharmacokinetic properties relative to GW4064 | – | – | –
2 | CC(C)c1onc(-c2c(Cl)cccc2Cl)c1COc1ccc(/C=C/c2cccc(C(=O)O)c2)c(Cl)c1 [GW4064] | very poor pharmacokinetic properties | increases HDL-cholesterol | reduces plasma triglycerides | –
3 | C[C@H](CCC(=O)O)[C@H]1CC[C@H]2[C@@H]3[C@H](O)C[C@@H]4C[C@H](O)CC[C@]4(C)[C@H]3C[C@H](O)[C@]12C [cholic acid] | – | – | – | activate FXR
